{
  "source": "patent US4468511A",
  "about": "“C-20- And C-23-Modified macrolide derivatives” (Eli Lilly and Company, priority 1983, dated 1984)",
  "key": {"[1]": {"test_system": "Haemophilus influenzae 76", "assay": "MIC, standard agar-dilution assay", "assay_type": "cell-based", "conditions": "agar-dilution; Haemophilus influenzae 76, Ampicillin-resistant strain; read-out: MIC", "procedure": "(§1) The MIC's in Table II were determined by standard agar-dilution assays. The MIC's in Table III were obtained using a conventional broth-dilution microtiter test."}, "[2]": {"test_system": "Staphylococcus epidermidis EPI2", "assay": "MIC, standard agar-dilution assay", "assay_type": "cell-based", "conditions": "Staphylococcus epidermidis, EPI2", "procedure": "as §1"}, "[3]": {"test_system": "Staphylococcus aureus X400", "assay": "MIC, standard agar-dilution assay", "assay_type": "cell-based", "conditions": "Staphylococcus aureus, X400", "procedure": "as §1"}, "[4]": {"test_system": "Haemophilus influenzae C.L.", "assay": "MIC, standard agar-dilution assay", "assay_type": "cell-based", "conditions": "agar-dilution; Haemophilus influenzae C.L., Ampicillin-sensitive strain; read-out: MIC", "procedure": "as §1"}, "[5]": {"test_system": "Klebsiella pneumoniae X26", "assay": "MIC, standard agar-dilution assay", "assay_type": "cell-based", "conditions": "agar-dilution; Klebsiella pneumoniae X26; read-out: MIC", "procedure": "(§2) Certain of the derivatives are active against some gram-negative bacteria, such as Pasteurella species. The MIC's in Table II were determined by standard agar-dilution assays. The MIC's in Table III were obtained using a conventional broth-dilution microtiter test."}, "[6]": {"test_system": "Klebsiella pneumoniae KAE", "assay": "MIC, standard agar-dilution assay", "assay_type": "cell-based", "conditions": "agar-dilution; Klebsiella pneumoniae KAE; read-out: MIC", "procedure": "as §2"}, "[7]": {"test_system": "Staphylococcus aureus X1.1", "assay": "MIC, standard agar-dilution assay", "assay_type": "cell-based", "conditions": "Staphylococcus aureus, X1.1", "procedure": "as §2"}, "[8]": {"test_system": "Streptococcus Group D X66", "assay": "MIC, standard agar-dilution assay", "assay_type": "cell-based", "conditions": "agar-dilution; Streptococcus Group D X66; read-out: MIC", "procedure": "as §2"}, "[9]": {"test_system": "Staphylococcus aureus V41", "assay": "MIC, standard agar-dilution assay", "assay_type": "cell-based", "conditions": "Staphylococcus aureus, V41", "procedure": "as §2"}, "[10]": {"test_system": "Streptococcus pneumoniae Park I", "assay": "MIC, standard agar-dilution assay", "assay_type": "cell-based", "conditions": "agar-dilution; Streptococcus pneumoniae Park I; read-out: MIC", "procedure": "as §2"}, "Escherichia coli TEM": {"test_system": "Escherichia coli TEM", "assay": "MIC, standard agar-dilution assay", "assay_type": "cell-based", "conditions": "agar-dilution; Escherichia coli TEM; read-out: MIC", "procedure": "as §2"}, "[11]": {"test_system": "Streptococcus pyogenes 9960", "assay": "MIC, standard agar-dilution assay", "assay_type": "cell-based", "conditions": "9960", "procedure": "as §2"}, "Escherichia coli EC14": {"test_system": "Escherichia coli EC14", "assay": "MIC, standard agar-dilution assay", "assay_type": "cell-based", "conditions": "agar-dilution; Escherichia coli EC14; read-out: MIC", "procedure": "as §2"}, "[12]": {"test_system": "Streptococcus pyogenes C203", "assay": "MIC, standard agar-dilution assay", "assay_type": "cell-based", "conditions": "Streptococcus pyogenes, C203", "procedure": "as §2"}, "[13]": {"test_system": "Streptococcus pyogenes C203", "assay": "Protection of mice experimentally infected with S. pyogenes C203", "assay_type": "in vivo", "conditions": "mg/kg × 2, doses given 1 and 4 hours postinfection", "procedure": "Some of the derivatives of this invention have shown in vivo antimicrobial activity against experimentally-induced infections in laboratory animals. When two doses of test compound were administered to mice experimentally infected with S. pyogenes C203, the activity observed was measured as an ED50 value [effective dose in mg/kg to protect 50% of the test animals: see Warren Wick, et al., J. Bacteriol. 81, 233-235 (1961)]."}, "[14]": {"test_system": "Staphylococcus epidermidis EPI1", "assay": "microbe, parasite or virus in culture", "assay_type": "cell-based", "conditions": "Staphylococcus epidermidis, EPI1", "procedure": "as §1"}, "[15]": {"test_system": "Staphylococcus aureus S13E", "assay": "microbe, parasite or virus in culture", "assay_type": "cell-based", "procedure": "as §1"}, "[16]": {"test_system": "Pasteurella hemolytica 23C", "assay": "MIC, conventional broth-dilution microtiter test", "assay_type": "cell-based", "conditions": "broth-dilution microtiter; Pasteurella hemolytica 23C; read-out: MIC", "procedure": "as §2"}, "[17]": {"test_system": "Pasteurella multocida 22A", "assay": "MIC, conventional broth-dilution microtiter test", "assay_type": "cell-based", "conditions": "Pasteurella multocida, 22A", "procedure": "as §2"}, "Streptococcus sp. 80": {"test_system": "Streptococcus sp. 80", "assay": "MIC, conventional broth-dilution microtiter test", "assay_type": "cell-based", "conditions": "broth-dilution microtiter; Streptococcus sp. 80; read-out: MIC", "procedure": "as §2"}, "[18]": {"test_system": "Pasteurella multocida 60A", "assay": "MIC, conventional broth-dilution microtiter test", "assay_type": "cell-based", "conditions": "Pasteurella multocida, 60A", "procedure": "as §2"}, "[19]": {"test_system": "Pasteurella multocida 68C", "assay": "MIC, conventional broth-dilution microtiter test", "assay_type": "cell-based", "conditions": "Pasteurella multocida, 68C", "procedure": "as §2"}, "Mycoplasma hyorhinis": {"test_system": "Mycoplasma hyorhinis", "assay": "MIC, conventional broth-dilution microtiter test", "assay_type": "cell-based", "conditions": "broth-dilution microtiter; Mycoplasma hyorhinis; read-out: MIC", "procedure": "as §2"}, "Mycoplasma gallisepticum": {"test_system": "Mycoplasma gallisepticum", "assay": "MIC, conventional broth-dilution microtiter test", "assay_type": "cell-based", "conditions": "Mycoplasmoides gallisepticum; broth-dilution microtiter; Mycoplasma gallisepticum; read-out: MIC", "procedure": "as §2"}, "Staphylococcus aureus": {"test_system": "Staphylococcus aureus", "assay": "MIC, conventional broth-dilution microtiter test", "assay_type": "cell-based", "conditions": "broth-dilution microtiter, read-out: MIC", "procedure": "as §2"}, "[20]": {"test_system": "Mycoplasma gallisepticum 34159", "assay": "MIC, conventional broth-dilution microtiter test", "assay_type": "cell-based", "conditions": "Mycoplasmoides gallisepticum; broth-dilution microtiter; Mycoplasma gallisepticum 34159, Resistant strain; read-out: MIC", "procedure": "as §2"}, "[21]": {"test_system": "Pasteurella multocida 17E", "assay": "MIC, conventional broth-dilution microtiter test", "assay_type": "cell-based", "conditions": "Pasteurella multocida, 17E", "procedure": "as §2"}, "[22]": {"test_system": "Mycoplasma gallisepticum 41313", "assay": "MIC, conventional broth-dilution microtiter test", "assay_type": "cell-based", "conditions": "Mycoplasmoides gallisepticum; broth-dilution microtiter; Mycoplasma gallisepticum 41313, Resistant strain; read-out: MIC", "procedure": "as §2"}, "Mycoplasma synoviae": {"test_system": "Mycoplasma synoviae", "assay": "MIC, conventional broth-dilution microtiter test", "assay_type": "cell-based", "conditions": "Mycoplasmopsis synoviae", "procedure": "as §2"}, "[23]": {"test_system": "Pasteurella hemolytica 41D", "assay": "MIC, conventional broth-dilution microtiter test", "assay_type": "cell-based", "conditions": "broth-dilution microtiter; Pasteurella hemolytica 41D; read-out: MIC", "procedure": "as §2"}, "[24]": {"test_system": "Pasteurella multocida 40G", "assay": "MIC, conventional broth-dilution microtiter test", "assay_type": "cell-based", "conditions": "Pasteurella multocida, 40G", "procedure": "as §2"}, "[25]": {"test_system": "Pasteurella hemolytica 22C", "assay": "MIC, conventional broth-dilution microtiter test", "assay_type": "cell-based", "conditions": "broth-dilution microtiter; Pasteurella hemolytica 22C; read-out: MIC", "procedure": "as §2"}},
  "note": "Like-named read-outs stand apart in the source and are kept apart here.",
  "data": [
    {"smiles": "CCC1OC(=O)CC(O)C(C)C(OC2OC(C)C(O)C(N(C)C)C2O)C(CCOc2ccccc2)CC(C)C(=O)C=CC(C)=CC1COc1ccccc1", "note": "(stereo not drawn) [Compound 32, 20,23-Di-O-phenyl-20-dihydro-OMT]", "values": [
      {"measurement": "MIC", "setting": "[1]", "value": "> 128", "unit": "µg/mL"},
      {"measurement": "MIC", "setting": "[2]", "value": 1, "unit": "µg/mL"},
      {"measurement": "MIC", "setting": "[3]", "value": 2, "unit": "µg/mL"},
      {"measurement": "MIC", "setting": "[4]", "value": "> 128", "unit": "µg/mL"},
      {"measurement": "MIC", "setting": "[5]", "value": "> 128", "unit": "µg/mL"},
      {"measurement": "MIC", "setting": "[6]", "value": "> 128", "unit": "µg/mL"},
      {"measurement": "MIC", "setting": "[7]", "value": 1, "unit": "µg/mL"},
      {"measurement": "MIC", "setting": "[8]", "value": 0.5, "unit": "µg/mL"},
      {"measurement": "MIC", "setting": "[9]", "value": 1, "unit": "µg/mL"},
      {"measurement": "MIC", "setting": "[10]", "value": 0.25, "unit": "µg/mL"},
      {"measurement": "MIC", "setting": "Escherichia coli TEM", "value": "> 128", "unit": "µg/mL"},
      {"measurement": "MIC", "setting": "[11]", "value": 2, "unit": "µg/mL"},
      {"measurement": "MIC", "setting": "Escherichia coli EC14", "value": "> 128", "unit": "µg/mL"},
      {"measurement": "MIC", "setting": "[12]", "value": 2, "unit": "µg/mL"},
      {"measurement": "ED50", "setting": "[13]; C203, mice, oral, read-out: ED50 Oral", "value": "> 50", "unit": "mg/kg"},
      {"measurement": "ED50", "setting": "[13]; C203, sc, mice, subcutaneous, read-out: ED50 Subcutaneous", "value": "> 10", "unit": "mg/kg"},
      {"measurement": "MIC", "setting": "[14]", "value": 1, "unit": "µg/mL"},
      {"measurement": "MIC", "setting": "[15]", "value": 1, "unit": "µg/mL"},
      {"measurement": "MIC", "setting": "[16]", "value": 12.5, "unit": "µg/mL"},
      {"measurement": "MIC", "setting": "[17]", "value": 3.12, "unit": "µg/mL"},
      {"measurement": "MIC", "setting": "Streptococcus sp. 80", "value": 0.048, "unit": "µg/mL"},
      {"measurement": "MIC", "setting": "[18]", "value": 3.12, "unit": "µg/mL"},
      {"measurement": "MIC", "setting": "[19]", "value": 3.12, "unit": "µg/mL"},
      {"measurement": "MIC", "setting": "Mycoplasma hyorhinis", "value": 50, "unit": "µg/mL"},
      {"measurement": "MIC", "setting": "Mycoplasma gallisepticum", "value": 0.78, "unit": "µg/mL"},
      {"measurement": "MIC", "setting": "Staphylococcus aureus", "value": 0.39, "unit": "µg/mL"},
      {"measurement": "MIC", "setting": "[20]", "value": 6.25, "unit": "µg/mL"},
      {"measurement": "MIC", "setting": "[21]", "value": 3.12, "unit": "µg/mL"},
      {"measurement": "MIC", "setting": "[22]", "value": 25, "unit": "µg/mL"},
      {"measurement": "MIC", "setting": "Mycoplasma synoviae", "value": 6.25, "unit": "µg/mL"},
      {"measurement": "MIC", "setting": "[23]", "value": 12.5, "unit": "µg/mL"},
      {"measurement": "MIC", "setting": "[24]", "value": 3.12, "unit": "µg/mL"},
      {"measurement": "MIC", "setting": "[25]", "value": 12.5, "unit": "µg/mL"}
    ]}
  ]
}
